Values joined by “and” are separate entries in the source; they are usually repeats but may differ in a detail not shown here. Equal values may be shown once. Read-outs that look alike come from different tables or passages of the source.
Tested on: senescent IMR90 ER:RAS cells (4-OHT-induced)
Assay: Nuclei count (Hoechst, high content imaging) senolytic assay, oncogene-induced senescence (OIS) model, senescent cells
Assay type: cell-based, human
Conditions: for viability at 10 µM / viability at 4.677 µM / viability at 2.188 µM / viability at 1 µM / viability at 0.4677 µM / viability at 0.2188 µM / viability at 0.1 µM / viability at 0.04677 µM / viability at 0.02188 µM / viability at 0.01 µM: Homo sapiens
Source text: To test for senolytic activity, we compared the effect of each compound on the total cell number (automated high content image-based analysis of total number of nuclei per well) in non-senescent and senescent IMR90 ER:RAS cultures treated with the top hits from the computational screen (Figs. 2e and 3a–d and Supplementary Fig. 4a–c). The drop in cell number compared to untreated controls is indicated by the nuclei count and reflects cell death[13],[15]. As positive control, we employed ouabain, a cardiac glycoside with well characterised senolytic activity.
We performed experimental validation of the compounds with z-score > 8 (Fig. 2e). […] We employed two cellular models of senescence: one of OIS and a second one of TIS. For the OIS case, we utilised IMR90 ER:RAS cells with 4-OHT at 100 nM. […] For the TIS model, we used A549 cells with etoposide at 100 μM. The exposure of the cells to etoposide lasted 48 h, after which period the cells were cultivated for a further three days with normal media.
IMR90 (CCL-186) human foetal lung fibroblasts and A549 (CCL-185) human lung adenocarcinoma cells were obtained from the American Type Culture Collection (ATCC, Manassas, VA). The cell lines were confirmed to be mycoplasma negative (Lonza MycoAlert, cat #LT07-118). IMR90 ER:RAS is a derivative of IMR90 cells expressing a switchable version of oncogenic H-Ras[84]. IMR90 ER:RAS and A549 cells were maintained in Dulbecco’s Modified Eagle Medium (DMEM, ThermoFisher) supplemented with foetal bovine serum (10%), L-glutamine (2 mM, ThermoFisher), and antibiotic-antimycotic solution (1%, ThermoFisher) and incubated under standard tissue culture conditions (37 °C and 5% CO2). For induction of the senescent phenotype, IMR90-ER:RAS cells were cultured in hydroxytamoxifen (4-OHT) (Sigma) added media at 100 nM final concentration. IMR90 were kept in culture for over 27 passages for replicative senescence. Cells were tested for mycoplasma on a regular basis.
Cells were seeded (50 μL per well) into 384-well plates (IMR90 ER:RAS cells in Nunc Optical Bottom Polybase Microplates [#142761, Thermo Scientific, Rochester, NY] and A549 cells in CELLSTAR Cell Culture Microplates [#781091, Greiner Bio-One, Kremsmünster, Austria]). Cells were incubated under standard tissue culture conditions for 24 h before the addition of compounds. Passage 14 IMR90 ER:RAS cells were seeded at 1300 cells per well in the control condition, and at 1600 cells per well in the senescent case. Passage 34 A549 cells were seeded at 7000 cells per well in the control condition, and at 10,000 cells per well in the senescent case.
Dose response plates were prepared with a DMSO control and a 10-point […] concentration range, and added to the compounds using a D300e digital dispenser (Tecan Trading AG, Switzerland) at a final concentration of between 10 μM and 10 nM. Every screened condition was carried out in triplicate. After 72 h of incubation with exposure to the compounds, cells were fixed by the addition of an equal volume of formaldehyde (8%, 50 μL; #BP531-500, Fisher Bioreagents, Fisher Scientific, Loughborough, Leicestershire) to the existing media, incubated at room temperature (30 min), and washed three times in phosphate-buffered saline (PBS). Cells were then permeabilised in Triton-X100 (0.1%, 50 μL) and incubated at room temperature (30 min) followed by three more washes with PBS.
Cells were stained with Hoechst 33342 for nuclei count (excitation/emission wavelength at 387/447 […], DAPI channel, original concentration at 10 mg/ml, final concentration at 2 μg/ml; H1399, Molecular Probes, Eugene, OR). The staining solution was prepared in bovine serum albumin solution (10%). The staining solution was added to each well (30 μL) and incubated in the dark at room temperature (30 min), followed by three washes with PBS and no final aspiration. Plates were foil sealed.

[1] = IMR-90, 72 h, Senescent, log (dose) [M] -5, 72 h, mean n=3 (Fig 3C), read-out: Mean % Cell Survival
[2] = IMR-90, 72 h, Senescent, log (dose) [M] -5.33, 72 h, mean n=3 (Fig 3C), read-out: Mean % Cell Survival
[3] = IMR-90, 72 h, Senescent, log (dose) [M] -5.66, 72 h, mean n=3 (Fig 3C), read-out: Mean % Cell Survival
[4] = IMR-90, 72 h, Senescent, log (dose) [M] -6, 72 h, mean n=3 (Fig 3C), read-out: Mean % Cell Survival
[5] = IMR-90, 72 h, Senescent, log (dose) [M] -6.33, 72 h, mean n=3 (Fig 3C), read-out: Mean % Cell Survival
[6] = IMR-90, 72 h, Senescent, log (dose) [M] -6.66, 72 h, mean n=3 (Fig 3C), read-out: Mean % Cell Survival
[7] = IMR-90, 72 h, Senescent, log (dose) [M] -7, 72 h, mean n=3 (Fig 3C), read-out: Mean % Cell Survival
[8] = IMR-90, 72 h, Senescent, log (dose) [M] -7.33, 72 h, mean n=3 (Fig 3C), read-out: Mean % Cell Survival
[9] = IMR-90, 72 h, Senescent, log (dose) [M] -7.66, 72 h, mean n=3 (Fig 3C), read-out: Mean % Cell Survival
[10] = IMR-90, 72 h, Senescent, log (dose) [M] -8, 72 h, mean n=3 (Fig 3C), read-out: Mean % Cell Survival

Compound: CO[C@H]1C[C@@H]2CC[C@@H](C)[C@@](O)(O2)C(=O)C(=O)N2CCCC[C@H]2C(=O)O[C@H]([C@H](C)C[C@@H]2CC[C@@H](OCCO)[C@H](OC)C2)CC(=O)[C@H](C)/C=C(\C)[C@@H](O)[C@@H](OC)C(=O)[C@H](C)C[C@H](C)/C=C/C=C/C=C/1C [Everolimus, everolimus, reference compound]
- viability at 10 µM [1]: 82.2%
- viability at 4.677 µM [2]: 80%
- viability at 2.188 µM [3]: 87.3%
- viability at 1 µM [4]: 92.8%
- viability at 0.4677 µM [5]: 92.3%
- viability at 0.2188 µM [6]: 92.6%
- viability at 0.1 µM [7]: 93.7%
- viability at 0.04677 µM [8]: 88.2%
- viability at 0.02188 µM [9]: 90.5%
- viability at 0.01 µM [10]: 93.7%
- viability at 10 µM (IMR-90, Senescent, log (dose) [M] -5, read-out: % Cell Survival): 67.8%
- viability at 4.677 µM (IMR-90, Senescent, log (dose) [M] -5.33, read-out: % Cell Survival): 92.4%
- viability at 2.188 µM (IMR-90, Senescent, log (dose) [M] -5.66, read-out: % Cell Survival): 80%
- viability at 0.2188 µM (IMR-90, Senescent, log (dose) [M] -6.66, read-out: % Cell Survival): 80.7%
- viability at 0.1 µM (IMR-90, Senescent, log (dose) [M] -7, read-out: % Cell Survival): 80.3%

Compound: CC(C)=CCc1c(O)cc2oc3cc(O)c(O)c(CC=C(C)C)c3c(=O)c2c1O [Gamma mangostin, gamma mangostin]
- % Cell Survival (Senescent cells, log (dose) [M] -5, individual replicates, SUP FIG 4C): 68.9759% and 85.4054% and 104.1% and 60.479%
- % Cell Survival (Senescent cells, log (dose) [M] -5.33, individual replicates, SUP FIG 4C): 98.1928% and 112.613% and 125.668% and 83.9521%
- % Cell Survival (Senescent cells, log (dose) [M] -5.66, individual replicates, SUP FIG 4C): 81.0241% and 178.198% and 139.216% and 80.9581%
- % Cell Survival (Senescent cells, log (dose) [M] -6, individual replicates, SUP FIG 4C): 64.6084% and 123.964% and 135.651% and 83.2335%
- % Cell Survival (Senescent cells, log (dose) [M] -6.33, individual replicates, SUP FIG 4C): 91.7169% and 121.982% and 131.907% and 40.8383%
- % Cell Survival (Senescent cells, log (dose) [M] -6.66, individual replicates, SUP FIG 4C): 78.1627% and 116.757% and 113.904% and 77.1257%
- % Cell Survival (Senescent cells, log (dose) [M] -7, individual replicates, SUP FIG 4C): 99.8494% and 112.432% and 120.856% and 67.0659%
- % Cell Survival (Senescent cells, log (dose) [M] -7.33, individual replicates, SUP FIG 4C): 98.3434% and 101.081% and 114.082% and 90.8982%
- % Cell Survival (Senescent cells, log (dose) [M] -7.66, individual replicates, SUP FIG 4C): 107.681% and 108.829% and 116.934% and 93.4132%
- % Cell Survival (Senescent cells, log (dose) [M] -8, individual replicates, SUP FIG 4C): 107.53% and 115.315% and 113.725% and 84.9102%
- Mean % Cell Survival (Senescent, log (dose) [M] -5, 72 h, mean n=3 (Fig 3C)): 79.74%
- Mean % Cell Survival (Senescent, log (dose) [M] -5.33, 72 h, mean n=3 (Fig 3C)): 105.106%
- Mean % Cell Survival (Senescent, log (dose) [M] -5.66, 72 h, mean n=3 (Fig 3C)): 119.849%
- Mean % Cell Survival (Senescent, log (dose) [M] -6, 72 h, mean n=3 (Fig 3C)): 101.864%
- Mean % Cell Survival (Senescent, log (dose) [M] -6.33, 72 h, mean n=3 (Fig 3C)): 96.6111%
- Mean % Cell Survival (Senescent, log (dose) [M] -6.66, 72 h, mean n=3 (Fig 3C)): 96.4872%
- Mean % Cell Survival (Senescent, log (dose) [M] -7, 72 h, mean n=3 (Fig 3C)): 100.051%
- Mean % Cell Survival (Senescent, log (dose) [M] -7.33, 72 h, mean n=3 (Fig 3C)): 101.101%
- Mean % Cell Survival (Senescent, log (dose) [M] -7.66, 72 h, mean n=3 (Fig 3C)): 106.714%
- Mean % Cell Survival (Senescent, log (dose) [M] -8, 72 h, mean n=3 (Fig 3C)): 105.37%
- % Cell Survival (Senescent, log (dose) [M] -5): 105.907% and 101.805% and 105.566%
- % Cell Survival (Senescent, log (dose) [M] -5.33): 105.42% and 104.907% and 107.486%
- % Cell Survival (Senescent, log (dose) [M] -5.66): 112.424% and 103.215% and 110.173%
- % Cell Survival (Senescent, log (dose) [M] -6): 104.019% and 94.1906% and 105.054%
- % Cell Survival (Senescent, log (dose) [M] -6.33): 116.322% and 101.974% and 111.9%
- % Cell Survival (Senescent, log (dose) [M] -6.66): 112.85% and 97.8003% and 108.125%
- % Cell Survival (Senescent, log (dose) [M] -7): 120.95% and 109.419% and 113.308%
- % Cell Survival (Senescent, log (dose) [M] -7.33): 110.231% and 111.901% and 120.282%
- % Cell Survival (Senescent, log (dose) [M] -7.66): 99.6955% and 109.475% and 108.701%
- % Cell Survival (Senescent, log (dose) [M] -8): 101.705% and 108.629% and 104.99%

Compound: COc1cc(/C=C/C(=O)O[C@H]2CC[C@]34C[C@]35CC[C@]3(C)[C@@H]([C@H](C)CCC=C(C)C)CC[C@@]3(C)[C@@H]5CC[C@H]4C2(C)C)ccc1O [Gamma oryzanol, gamma oryzanol]
- viability at 10 µM [1]: 145%
- viability at 4.677 µM [2]: 134%
- viability at 2.188 µM [3]: 135%
- viability at 1 µM [4]: 139%
- viability at 0.4677 µM [5]: 141%
- viability at 0.2188 µM [6]: 142%
- viability at 0.1 µM [7]: 132%
- viability at 0.04677 µM [8]: 151%
- viability at 0.02188 µM [9]: 154%
- viability at 0.01 µM [10]: 125%
- viability at 10 µM (IMR-90, Senescent cells, log (dose) [M] -5, individual replicates, SUP FIG 4C, read-out: % Cell Survival): 150%
- viability at 2.188 µM (IMR-90, Senescent cells, log (dose) [M] -5.66, individual replicates, SUP FIG 4C, read-out: % Cell Survival): 137%
- viability at 0.4677 µM (IMR-90, Senescent cells, log (dose) [M] -6.33, individual replicates, SUP FIG 4C, read-out: % Cell Survival): 153%
- viability at 0.01 µM (IMR-90, Senescent, log (dose) [M] -8, read-out: % Cell Survival): 81.6%
- senolytic activity (in words) (experimental screen, OIS IMR90 ER:RAS): inactive

From PMC10257182, “Discovery of senolytics using machine learning” (Nature Communications, 2023)
